The star is where a group is joined. ξ: configuration not given here. Lipoyl(6ξ) = O=C(CCCCC1CCSS1)*
Legend:
[1] = Size and zeta potential measurements (Zetasizer Nano ZS) of P704 based binary and ternary complexes; format: physicochemical
Protocol: Size and zeta potential measurements: Particle size and zeta potential measurements of P704 based binary and ternary complexes were measured using a Zetasizer Nano ZS (Malvern Instruments Ltd.) at 25° C. Binary complexes were prepared in Tyrode's solution at a weight/weight ratio (P704/IVT-mRNA or pDNA) of 63:1. Ternary complexes were prepared in NF-water with P704 at a weight/weight ratio of 63:1 and the compound at N/P ratio of 10:1 (compound 0 (DL) and compound 8) or 5:1 (compound 4 and compound 9) using methods described above. The IVT-mRNA and pDNA concentration in both binary and ternary complexes was fixed at 10 μg/ml.
The results of physical characterizations (size and zeta potential) of P704 based binary and ternary complexes containing IVT-mRNA or pDNA are given in the following table: […]

16HBE cells [2] = experiment: Cell endocytosis mechanism assay, uptake of Fluo-pDNA containing P704 based ternary complexes (flow cytometry); parameters: species or system human; conditions: for endocytosis of ternary complexes in presence of free compound and its fragments (competition): FIG. 11c/11d
Protocol: In order to study the cellular uptake different binary and ternary complexes, 16 HBE cells (7×10^5/well) were seeded in 6-well plate 24 h before investigation. P704 based binary complexes were prepared by mixing P704 at the concentration of 63 (w/w) with Fluo-pDNA in Tyrode's solution. Compound 9 based binary complexes were prepared by mixing compound 9 at the N/P ratio of 5 with Fluo-pDNA in NF-water. P704 based ternary complexes consisted of P704 at the concentration of 63 (w/w), compound 0 (DL) or compound 9 at optimum N/P ratio and Fluo-pDNA. P304 based ternary complexes consisted of P304 at the concentration of 2000 (w/w), compound 8 at N/P ratio of 20 and Fluo-pDNA. P90R4 based ternary complexes consisted of P90R4 at the concentration of 1600 (w/w), compound 8 at N/P ratio of 15 and Fluo-pDNA. The amount of Fluo-pDNA in each sample was 4 μg/well. Naked Fluo-pDNA was served as a negative control. After 4 h incubation, medium was removed. The cells were harvested and rinsed with cold PBS for three times followed immediately by flow cytometry analysis. The amount of 10 000 live cells was collected for each sample.
With the purpose of identifying possible internalization mechanisms of ternary complexes by human bronchial epithelium cells, 16 HBE cells were pre-incubated at different temperatures or treated with specific agents at 37° C. for 1 h, then incubated with P704 based ternary complexes in the same conditions as described above. (I, II) To examine the effects of chlorpromazine and filipin, which were the clathrin- and caveolae-dependent endocytosis inhibitors, 10 μg/ml chlorpromazine or 1 μg/ml filipin in OptiMEM were used. (III) To study the effect of amiloride (macropinocytosis inhibitor), 0.3 mg/ml amiloride was adopted. (IV) To investigate the effect of protamine, an adsorptive-mediated endocytosis inhibitor, 1 mM protamine sulfate was added. […]

airway epithelium cells = experiment: In vitro transfection study on cultured airway epithelium cells (luciferase, RLU/mg cellular protein); format: cell-based; conditions: ternary complexes formed by P704, a nucleic acid and the compound
Protocol: In vitro transfection: For the luciferase assay, cells were seeded at a density of 1.8×10^4/well (BEAS-2B) or 3.5×10^4/well (16HBE) in 96-well plates 24 h before transfection to reach 60-80% confluence. Following removal of growth medium, cells were rinsed with DPBS (Gibco, Germany). 170 μl of fresh serum-free OptiMEM (Gibco, Germany) were added per well, and subsequently 30 μl of IVT-mRNA or pDNA containing complexes prepared, as described above, corresponding to 400 ng IVT-mRNA or pDNA per well, were added in replicates of five. After 4 h of incubation at 37° C. in a humidified 5% CO2-containing atmosphere, the transfection medium was replaced with culture medium supplemented with 10% FBS and 1% (v/v) penicillin/streptomycin. […] assayed with Metridia luciferase substrate (coelenterazine, Invivogen, France) after 24 h using a FLUOstar microplate reader (BMG Labtech, […]). In all cases each sample was measured on at least two other occasions to ensure the reproducibility of the data.

16HBE cells [3] = experiment: In vitro transfection, Metridia luciferase assay in 16HBE cells; format: cell-based, human; conditions: day 2

Substance	particle size of ternary complex compared with other counterparts [1]	cell uptake of ternary complexes at 4° C. and in the presence of NaN3 (16HBE cells [2]; FIG. 11a)	endocytosis of ternary complexes in presence of free compound and its fragments (competition) (16HBE cells [2])	transfection efficiencies of ternary complexes with compound 0 (DL) versus compound 0 (R) (airway epithelium cells)	pDNA expression compared with compound 3 containing ternary complex (16HBE cells [3])
KETWWETWWTEWWTEW-KKKKRRRRRKKKK-GACSERSMNFCG (KETWWETWWTEWWTEWKKKKRRRRRKKKKGACSERSMNFCG) [compound 9]	slightly smaller	Energy-dependent cell uptake	inhibited by free compound 9 and free peptide GACSERSMNFCG		
NH2-VKRKKKPKKRRRRKKWK(DL-lipoic acid)-CONH2 (H-VKRKKKPKKRRRRKKWK(Lipoyl(6ξ))-NH2; SMILES CC(C)[C@H](N)C(=O)N[C@@H](CCCCN)C(=O)N[C@@H](CCCNC(=N)N)C(=O)N[C@@H](CCCCN)C(=O)N[C@@H](CCCCN)C(=O)N[C@@H](CCCCN)C(=O)N1CCC[C@H]1C(=O)N[C@@H](CCCCN)C(=O)N[C@@H](CCCCN)C(=O)N[C@@H](CCCNC(=N)N)C(=O)N[C@@H](CCCNC(=N)N)C(=O)N[C@@H](CCCNC(=N)N)C(=O)N[C@@H](CCCNC(=N)N)C(=O)N[C@@H](CCCCN)C(=O)N[C@@H](CCCCN)C(=O)N[C@@H](Cc1c[nH]c2ccccc12)C(=O)N[C@@H](CCCCNC(=O)CCCCC1CCSS1)C(N)=O) [compound 0 (DL)]			cannot be inhibited by free compound 0 (DL) and its fragment sequence	similar	similar

Reference: patent US11077205B2, “Synthetic compound for improving efficiency of transfection” (Klinikum der Universität München, priority 2016, dated 2021)
